These results are taken from patent publication US11154559B2, “Methods and compositions of bile acids” (The General Hospital Corporation, priority 2011, dated 2021).

The nature of this assay: Effect of subcutaneous TUDCA on weight gain and food intake in mice on a high-fat diet. The assay is classed as in vivo, C57BL/6J mice. The settings on record: 500 mg/kg s.c. twice a week vs placebo. As for the experimental part:
To examine the effect of circulating bile acids on body weight gain, C57BL/6J mice on a high-fat diet (HFD) were given subcutaneous injections of tauroursodeoxycholic acid (TUDCA, 500 mg/kg) or placebo for 10 weeks (N=6 per group). TUDCA was prepared daily in 0.15 M NaHCO3 (pH adjusted to 7.4). TUDCA or placebo (0.15 M NaHCO3, pH 7.4) was administered twice a week (Monday/Thursday) as 10 μl solution/g of body weight. Body weight (BW) was measured and recorded immediately before each injection and used to calculate the TUDCA or placebo dose to be administered.
Animals were 10 weeks of age at the start of the experiment (BW=32.6 g±2.6) and were on a […] from weaning that provided 60% of total energy as fat, 20% as carbohydrate, and 20% as protein (D12492 diet; Research Diets, New Brunswick, N.J.). Animals were individually housed on wire floors without bedding and maintained on a 12-hour light-dark cycle (lights on at 0700 hours) in a facility with an ambient temperature of 19-22° C.
Body weight was recorded twice a week, food intake was obtained weekly, and fasting blood glucose was measured every other week.

For the compound `C[C@H](CCC(=O)NCCS(=O)(=O)O)[C@H]1CC[C@H]2[C@@H]3[C@@H](O)C[C@@H]4C[C@H](O)CC[C@]4(C)[C@H]3CC[C@]12C` [TUDCA, tauroursodeoxycholic acid], the “percent weight change from baseline” value (high-fat diet, FIG. 35) is recorded as “trend toward decreased weight”. The weight gain entry (high-fat diet, not statistically significant, FIG. 34) is “trend towards decreased weight gain”. Besides, the weekly food intake result (FIG. 36) is “similar”. For the setting “FIG. 37”, the cumulative food intake entry is on record as “similar”.
